Data set [1] relates to C. albicans designated CA-1, Strain SLU-1. The settings on record: designated CA-1, Strain SLU-1, 18 h. The procedure: In each broth assay screening procedure, a colony of C. albicans designated CA-1, Strain SLU-1 that was received from the laboratories of G. Matuschak and A. Lechner, St. Louis University Hospital, St. Louis, Mo., where the strain was maintained, was inoculated into a tube containing 5 mL Sabouraud Dextrose broth (2% dextrose, 1% neopeptone) and incubated overnight at 37° C. with shaking. The overnight culture was diluted 1:50 into 5 mL of fresh broth and incubated for 3 hours at 37° C. Organisms were pelleted by centrifugation in a Beckman J-6M centrifuge for 5 minutes at 3000 rpm (1500×g) and the pellets were resuspended in 5 mL phosphate buffered saline (PBS) and the optical density at 570 nm was determined. On the basis of the determination that one OD unit equals 3×10^7 colony forming units/mL, yeast cells were diluted to 2×10^6 cells/mL in Sabouraud Dextrose broth.
Domain III peptides derived from or based on BPI to be screened were originally constituted in Dulbecco's-PBS, were diluted to 100 μg/mL in broth and were serially diluted 2-fold into wells of a 96 well sterile, flat bottom, non-pyrogenic tissue culture plate (Costar, Cambridge, Mass.). All assays were performed in triplicate. 2×10^5 organisms were added at 100 μl per well; final volume was 200 μL/well; the plate was incubated on a shaker at 37° C. for 18 hours; and the optical densities for each well were read at 590 nm. […] The broth assay data may be set out in terms of minimum inhibitory concentration (MIC), i.e. the lowest concentration required to reduce the optical density at 590 nm to below 0.1.

Data set [2] deals with polyene-resistant (ATCC 38247), 5-fluorocytosine-resistant (ATCC 44373), azole-resistant (ATCC 62342), ketoconazole-resistant (ATCC 64124) C. albicans. Kind of data set: Fungicidal activity on commercially-available drug-resistant Candida strains. In kind it is cell-based, Candida albicans. The settings on record: ATCC 38247, 44373, 62342, 64124. Here is the method:
Further experiments were performed to determine the anti-fungal activity of Domain III derived peptides on commercially-available strains of Candida considered resistant to other anti-fungal agents: polyene-resistant C. albicans (ATCC Accession No. 38247), 5-fluorocytosine-resistant C. albicans (ATCC No. 44373), azole-resistant C. albicans (ATCC No. 62342), and ketoconazole-resistant C. albicans (ATCC No. 64124).

Another data set deals with Candida glabrata. It is filed as cell-based. The procedure:
(§1) In additional experiments, a fluorescence-activated cell sorter (FACS) based assay was developed to test the fungicidal activity of the peptides. […] Difco) agar. Several colonies were picked from the agar plate and inoculated into 5 mL of Sabouraud's Dextrose media in a sterile 10 mL polypropylene tube. The fungal cultures were incubated for about 18 hours at 30° C. […] The culture were centrifuged at 3000 rpm for 5 minutes (Sorvall RT 6000B). After centrifugation, the supernatant was decanted leaving the fungal pellets in the centrifuge tubes. The pellets were resuspended in 15 mL of SDB. Both suspensions were combined into one tube and mixed to generate a stock culture. […] After determining the concentration of the stock, appropriate dilutions were made with Sabouraud's Dextrose media to obtain 100 mL of 1×10^6 cell/mL. […] After the 1 hour incubation, all the tubes were centrifuged at 3000 rpm for 5 minutes. […] Louis, Mo.) in Dulbecco's PBS (DPBS, GIBCO, Grand Island, N.Y.) except the autofluorescence control, which was resuspended in DPBS alone. The tubes were mixed and incubated in the dark at room temperature for at least 20 minutes. […] The settings were adjusted appropriately to the following approximate parameters: Cells were analyzed (10,000 cells/tube) and their respective fluorescence determined. […] The population of dead (i.e., propidium iodide stained) fungal cells was determined by a fluorescence threshold between the negative control and positive control.

The subject of the next data set is Candida lusitaniae. It is filed as cell-based. The procedure:
as §1

The test system of a further data set is Candida parasilosis. It is filed as cell-based. Here is the method: as §1
Data set [3] is classed as physicochemical. The procedure: XMP.284 was soluble in water and unbuffered saline. XMP.284 was also soluble in 10 mM sodium phosphate, 150 mM sodium chloride pH 7. […] There was very little product loss, as measured by absorbance at 280 nm, in 0.15 M saline buffered with 10 mM acetate at pH 4, 5 or 6. […] Presently preferred is a formulation that includes 10 mM sodium acetate, 150 mM sodium chloride, pH 5.

The format of data set [4] is physicochemical. Conditions: 37° C., at 50 days, acetate buffered saline. The procedure: The lyophilized peptide was dissolved to a concentration of 1 mg/mL in three different buffers. The three formulation buffers used were (a) 10 mM solution acetate, 150 mM sodium chloride pH 4, (b) 10 mM sodium acetate, 150 mM sodium chloride pH 5 and (c) 10 mM sodium acetate, 150 mM sodium chloride pH 6. The formulated peptide samples were incubated at 4° C. and 37C. At each time point, samples were withdrawn from each vial and assayed by C18 reverse phase BPLC, absorbance at 280 nm, and SDS-PAGE. The study was conducted for 50 days.
A 0.46×25 cm Vydac C18 column (cat no. 218TP54) was used on a Shimadzu HPLC system. The column was run in binary gradient mobile phases: A=Water+0.05% TFA, B=acetonitrile+0.05% TFA. […]
Samples were analyzed by SDS polyacrylamide gel electrophoresis, run on Novex 10-20% tricine precast gels (Novex, La Jolla, Calif., EC6625). […] In addition, samples were analyzed photometrically. For this, samples withdrawn at each time point were diluted 6-fold with Millipore water and absorbance was measured at 280 nm and scanning from 210 nm to 340 nm using a Shimadzu UV 160 spectrophotometer. AU samples were filtered prior to absorbance measurement(s).
XMP.284 was soluble in water and unbuffered saline. […] There was very little product loss, as measured by absorbance at 280 nm, in 0.15 M saline buffered with 10 mM acetate at pH 4, 5 or 6. […]

With H-KSKVGWLIQLFHKK-NH2 [XMP.13], the “minimum inhibitory concentration (MIC), lowest concentration required to reduce the optical density at 590 nm to below 0.1” value in data set [1] amounted to 12.5 µg/mL. Also, the “Fungicidal activity on resistant strains” value in data set [2] was “not reduced”.

As to H-SKVKWLIQLFHKK-NH2 [XMP.284], the “Candida glabrata IC50” value in the data set on Candida glabrata came out at 6.27 µg/mL. The “Candida lusitaniae IC50” value in the data set with Candida lusitaniae was found to be 1.20 µg/mL. In addition, the “Candida parasilosis IC50” value in the data set with Candida parasilosis is 1.82 µg/mL. Also, in data set [3], the “solubility in the phosphate buffer on heating” value is listed as “remained soluble”; the “solubility in water and unbuffered saline” value is on record as “soluble”. For the same substance, the “new HPLC peaks accumulated” value in data set [4] was “less than 0.5%”.
